According to the supplement of paper PMC10307832:

Assays:
Assay in all cases: relative viability (nuclei count vs DMSO), 5 days (fraction); higher = more cells survive
[1] = compound: COc1cccc2cc(-c3nc([C@H]4CC[C@H](C(=O)O)CC4)n4ncnc(N)c34)[nH]c12 [OSI-027] + N=C(N)NC(=N)NCCc1ccccc1 [Phenformin] (partner 250 µM)
Procedure, shortened: (§1)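 Five library-drug doses in √10 steps were combined with a fixed anchor-drug dose, or a single drug was given alone, by pin tool to lung cancer cell lines in 1536-well plates the day after seeding. Nuclei were stained and counted after 5 days. Relative viability is the nuclei count in treated wells over that in vehicle wells, taken as the median of duplicate plates.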

[2] = compound: Cc1nc(NC(=O)N2CCC[C@H]2C(N)=O)sc1-c1ccnc(C(C)(C)C(F)(F)F)c1 [Alpelisib] + CCNC(=O)c1noc(-c2cc(C(C)C)c(O)cc2O)c1-c1ccc(CN2CCOCC2)cc1 [Luminespib] (partner 0.01 µM)
Procedure, shortened: as §1

[3] = compound: CCCS(=O)(=O)Nc1ccc(F)c(C(=O)c2c[nH]c3ncc(-c4ccc(Cl)cc4)cc23)c1F [Vemurafenib] + CS(=O)(=O)N1CCN(Cc2cc3nc(-c4cccc5[nH]ncc45)nc(N4CCOCC4)c3s2)CC1 [Pictilisib] (partner 1 µM)
Procedure, shortened: as §1

[4] = compound: COc1cccc2cc(-c3nc([C@H]4CC[C@H](C(=O)O)CC4)n4ncnc(N)c34)[nH]c12 [OSI-027] + CC1(C)CCC(c2ccc(Cl)cc2)=C(CN2CCN(c3ccc(C(=O)NS(=O)(=O)c4ccc(N[C@H](CCN5CCOCC5)CSc5ccccc5)c(S(=O)(=O)C(F)(F)F)c4)cc3)CC2)C1 [Navitoclax] (partner 0.5 µM)
Procedure, shortened: as §1

Cell Line NCI-H2347 has a relative viability ([1]; first compound 0.01 µM) of 0.442, a relative viability ([1]; first compound 0.03162 µM) of 0.371 and a relative viability ([1]; first compound 0.1 µM) of 0.293. The relative viability ([1]; first compound 0.3162 µM) was 0.262, the relative viability ([1]; first compound 1 µM) was 0.296 and the relative viability ([2]; first compound 0.04 µM) was 0.476. It also gave a relative viability ([2]; first compound 0.1265 µM) of 0.632, a relative viability ([2]; first compound 0.4 µM) of 0.626 and a relative viability ([2]; first compound 1.265 µM) of 0.503. It also gave a relative viability ([2]; first compound 4 µM) of 0.522, a relative viability ([3]; first compound 0.03162 µM) of 0.328 and a relative viability ([3]; first compound 0.1 µM) of 0.659. The relative viability ([3]; first compound 0.3162 µM) was 0.754, the relative viability ([3]; first compound 1 µM) was 0.667 and the relative viability ([4]; first compound 0.01 µM) was 0.916. It also gave a relative viability ([4]; first compound 0.03162 µM) of 0.764, a relative viability ([4]; first compound 0.1 µM) of 0.609 and a relative viability ([4]; first compound 0.3162 µM) of 0.626. It also gave a relative viability ([4]; first compound 1 µM) of 0.333.
NCI-H1975 gave a relative viability ([1]; first compound 0.01 µM) of 0.435, a relative viability ([1]; first compound 0.03162 µM) of 0.412 and a relative viability ([1]; first compound 0.1 µM) of 0.379. For the same cell line, the relative viability ([1]; first compound 0.3162 µM) was 0.363, the relative viability ([1]; first compound 1 µM) was 0.298 and the relative viability ([2]; first compound 0.04 µM) was 0.227. The relative viability ([2]; first compound 0.1265 µM) was 0.204, the relative viability ([2]; first compound 0.4 µM) was 0.199 and the relative viability ([2]; first compound 1.265 µM) was 0.184. The relative viability ([2]; first compound 4 µM) was 0.155, the relative viability ([3]; first compound 0.03162 µM) was 0.279 and the relative viability ([3]; first compound 0.1 µM) was 0.278. The relative viability ([3]; first compound 0.3162 µM) was 0.232, the relative viability ([3]; first compound 1 µM) was 0.332 and the relative viability ([4]; first compound 0.01 µM) was 1.19. The relative viability ([4]; first compound 0.03162 µM) was 1.11, the relative viability ([4]; first compound 0.1 µM) was 1.16 and the relative viability ([4]; first compound 0.3162 µM) was 1.02. The relative viability ([4]; first compound 1 µM) was 0.508.
HCC-15 showed a relative viability ([1]; first compound 0.01 µM) of 0.465, a relative viability ([1]; first compound 0.03162 µM) of 0.458 and a relative viability ([1]; first compound 0.1 µM) of 0.45. It also gave a relative viability ([1]; first compound 0.3162 µM) of 0.389, a relative viability ([1]; first compound 1 µM) of 0.279 and a relative viability ([2]; first compound 0.04 µM) of 0.252. It also gave a relative viability ([2]; first compound 0.1265 µM) of 0.292, a relative viability ([2]; first compound 0.4 µM) of 0.336 and a relative viability ([2]; first compound 1.265 µM) of 0.423. The relative viability ([2]; first compound 4 µM) was 0.145, the relative viability ([3]; first compound 0.03162 µM) was 0.653 and the relative viability ([3]; first compound 0.1 µM) was 0.773. For the same cell line, the relative viability ([3]; first compound 0.3162 µM) was 0.727, the relative viability ([3]; first compound 1 µM) was 0.578 and the relative viability ([4]; first compound 0.01 µM) was 0.713. The relative viability ([4]; first compound 0.03162 µM) was 0.689, the relative viability ([4]; first compound 0.1 µM) was 0.676 and the relative viability ([4]; first compound 0.3162 µM) was 0.611. The relative viability ([4]; first compound 1 µM) was 0.374.
With COR-L23 the relative viability ([1]; first compound 0.01 µM) was 0.53, the relative viability ([1]; first compound 0.03162 µM) was 0.445 and the relative viability ([1]; first compound 0.1 µM) was 0.476. The relative viability ([1]; first compound 0.3162 µM) was 0.445, the relative viability ([1]; first compound 1 µM) was 0.206 and the relative viability ([2]; first compound 0.04 µM) was 0.678. For the same cell line, the relative viability ([2]; first compound 0.1265 µM) was 0.748, the relative viability ([2]; first compound 0.4 µM) was 0.696 and the relative viability ([2]; first compound 1.265 µM) was 0.62. The relative viability ([2]; first compound 4 µM) was 0.477, the relative viability ([3]; first compound 0.03162 µM) was 0.684 and the relative viability ([3]; first compound 0.1 µM) was 0.615. The relative viability ([3]; first compound 0.3162 µM) was 0.598, the relative viability ([3]; first compound 1 µM) was 0.544 and the relative viability ([4]; first compound 0.01 µM) was 0.988. For the same cell line, the relative viability ([4]; first compound 0.03162 µM) was 0.782, the relative viability ([4]; first compound 0.1 µM) was 0.938 and the relative viability ([4]; first compound 0.3162 µM) was 0.923. It also gave a relative viability ([4]; first compound 1 µM) of 0.36.
NCI-H23 gave a relative viability ([1]; first compound 0.01 µM) of 0.824, a relative viability ([1]; first compound 0.03162 µM) of 0.767 and a relative viability ([1]; first compound 0.1 µM) of 0.808. For the same cell line, the relative viability ([1]; first compound 0.3162 µM) was 0.669, the relative viability ([1]; first compound 1 µM) was 0.533 and the relative viability ([2]; first compound 0.04 µM) was 0.225. The relative viability ([2]; first compound 0.4 µM) was 0.244, the relative viability ([2]; first compound 1.265 µM) was 0.201 and the relative viability ([2]; first compound 4 µM) was 0.215. The relative viability ([3]; first compound 0.03162 µM) was 0.531, the relative viability ([3]; first compound 0.1 µM) was 0.493 and the relative viability ([3]; first compound 0.3162 µM) was 0.476. For the same cell line, the relative viability ([3]; first compound 1 µM) was 0.452, the relative viability ([4]; first compound 0.01 µM) was 0.666 and the relative viability ([4]; first compound 0.03162 µM) was 0.955. It also gave a relative viability ([4]; first compound 0.1 µM) of 0.808, a relative viability ([4]; first compound 0.3162 µM) of 0.604 and a relative viability ([4]; first compound 1 µM) of 0.319.
With NCI-H441 the relative viability ([1]; first compound 0.01 µM) was 0.895, the relative viability ([1]; first compound 0.03162 µM) was 0.879 and the relative viability ([1]; first compound 0.1 µM) was 0.841. It also gave a relative viability ([1]; first compound 0.3162 µM) of 0.55, a relative viability ([1]; first compound 1 µM) of 0.474 and a relative viability ([2]; first compound 0.04 µM) of 0.395. The relative viability ([2]; first compound 0.1265 µM) was 0.324, the relative viability ([2]; first compound 0.4 µM) was 0.333 and the relative viability ([2]; first compound 1.265 µM) was 0.272. For the same cell line, the relative viability ([2]; first compound 4 µM) was 0.312, the relative viability ([3]; first compound 0.03162 µM) was 0.44 and the relative viability ([3]; first compound 0.1 µM) was 0.402. The relative viability ([3]; first compound 0.3162 µM) was 0.544, the relative viability ([3]; first compound 1 µM) was 0.35 and the relative viability ([4]; first compound 0.01 µM) was 0.47. It also gave a relative viability ([4]; first compound 0.03162 µM) of 0.57, a relative viability ([4]; first compound 0.1 µM) of 0.425 and a relative viability ([4]; first compound 0.3162 µM) of 0.47. For the same cell line, the relative viability ([4]; first compound 1 µM) was 0.185.
NCI-H1650 gave a relative viability ([1]; first compound 0.01 µM) of 0.37, a relative viability ([1]; first compound 0.03162 µM) of 0.366 and a relative viability ([1]; first compound 0.1 µM) of 0.444. The relative viability ([1]; first compound 0.3162 µM) was 0.378, the relative viability ([1]; first compound 1 µM) was 0.253 and the relative viability ([2]; first compound 0.04 µM) was 0.208. For the same cell line, the relative viability ([2]; first compound 0.1265 µM) was 0.192, the relative viability ([2]; first compound 0.4 µM) was 0.24 and the relative viability ([2]; first compound 1.265 µM) was 0.19. The relative viability ([2]; first compound 4 µM) was 0.18, the relative viability ([3]; first compound 0.03162 µM) was 0.487 and the relative viability ([3]; first compound 0.3162 µM) was 0.581. The relative viability ([3]; first compound 1 µM) was 0.601, the relative viability ([4]; first compound 0.01 µM) was 1.21 and the relative viability ([4]; first compound 0.03162 µM) was 1.47. The relative viability ([4]; first compound 0.1 µM) was 1.11, the relative viability ([4]; first compound 0.3162 µM) was 1.29 and the relative viability ([4]; first compound 1 µM) was 0.459.
Work on NCI-H1734 yielded a relative viability ([1]; first compound 0.01 µM) of 0.398, a relative viability ([1]; first compound 0.03162 µM) of 0.398 and a relative viability ([1]; first compound 0.1 µM) of 0.384. For the same cell line, the relative viability ([1]; first compound 0.3162 µM) was 0.346, the relative viability ([1]; first compound 1 µM) was 0.238 and the relative viability ([2]; first compound 0.04 µM) was 0.19. The relative viability ([2]; first compound 0.4 µM) was 0.18, the relative viability ([2]; first compound 1.265 µM) was 0.183 and the relative viability ([2]; first compound 4 µM) was 0.167. For the same cell line, the relative viability ([3]; first compound 0.03162 µM) was 0.452, the relative viability ([3]; first compound 0.1 µM) was 0.545 and the relative viability ([3]; first compound 0.3162 µM) was 0.432. The relative viability ([3]; first compound 1 µM) was 0.367, the relative viability ([4]; first compound 0.01 µM) was 0.749 and the relative viability ([4]; first compound 0.03162 µM) was 0.836. The relative viability ([4]; first compound 0.1 µM) was 0.785, the relative viability ([4]; first compound 0.3162 µM) was 0.746 and the relative viability ([4]; first compound 1 µM) was 0.384.
